Laboratory results from ChEMBL document CHEMBL3885861, “Open TG-GATES”.

Species on record: Rattus norvegicus
Assay: Open TG-GATES - Regimen: Single
Assay type: toxicity, organism-based, Sprague-Dawley
Set-up: regimen Single, gender Male, age 6 weeks
Conditions: in vivo, po, 100 mg/kg, route gavage, dose level Low; for APTT / Bas / Eos / Fbg / Hb / Ht / Lym / MCH / MCHC / MCV / Mono / Neu / PT / Plat / RBC / Ret / WBC: tissue Blood; for KIDNEY_L / KIDNEY_R / KIDNEY_TOTAL: tissue Kidney; for LIVER: tissue Liver; for A/G / ALP / ALT / AST / BUN / CRE / Ca / Cl / DBIL / GLC / IP / LDH / Na / PL / RALB / TBIL / TC / TG / TP / gamma-GTP: tissue Plasma

NC(N)=Nc1nc(CSCCC(N)=NS(N)(=O)=O)cs1 [FAMOTIDINE]
TERMINAL_BW (3 h): 213.7 g | APTT (3 h): 19.6 s | Bas (3 h): 0% | Eos (3 h): 0.6% | Fbg (3 h): 217.4 mg/dL | Hb (3 h): 13.5 g/dL | Ht (3 h): 38.2% | Lym (3 h): 71.2% | MCH (3 h): 22.6 pg | MCHC (3 h): 35.3% | MCV (3 h): 64.1 fL | Mono (3 h): 2.4% | Neu (3 h): 24% | PT (3 h): 12.3 s | Plat (3 h): 112.1 x10_4/uL | RBC (3 h): 596.2 x10_4/ul | Ret (3 h): 7.2% | WBC (3 h): 80 x10_2/uL | KIDNEY_L (3 h): 1 g | KIDNEY_R (3 h): 1 g | KIDNEY_TOTAL (3 h): 1.9 g | LIVER (3 h): 10.3 g | A/G (3 h): 1.7 | ALP (3 h): 1057.6 IU/L | ALT (3 h): 38 IU/L | AST (3 h): 64.8 IU/L | BUN (3 h): 9.4 mg/dL | CRE (3 h): 0.4 mg/dL | Ca (3 h): 10.5 mg/dL | Cl (3 h): 104.2 meq/L | DBIL (3 h): 0.076 mg/dL | GLC (3 h): 196.2 mg/dL | IP (3 h): 9.2 mg/dL | LDH (3 h): 186.2 IU/L | Na (3 h): 141 meq/L | PL (3 h): 144.6 mg/dL | RALB (3 h): 3.4 g/dL | TBIL (3 h): 0.1 mg/dL | TC (3 h): 79 mg/dL | TG (3 h): 56.6 mg/dL | TP (3 h): 5.5 g/dL | gamma-GTP (3 h): 1 IU/L | TERMINAL_BW (6 h): 212.2 g | APTT (6 h): 18.5 s | Bas (6 h): 0% | Eos (6 h): 0.8% | Fbg (6 h): 222.2 mg/dL | Hb (6 h): 13.4 g/dL | Ht (6 h): 37.5% | Lym (6 h): 71.4% | MCH (6 h): 22.2 pg | MCHC (6 h): 35.7% | MCV (6 h): 62.3 fL | Mono (6 h): 2.6% | Neu (6 h): 22.8% | PT (6 h): 12.4 s | Plat (6 h): 120.7 x10_4/uL | RBC (6 h): 602.6 x10_4/ul | Ret (6 h): 6.8% | WBC (6 h): 98.6 x10_2/uL | KIDNEY_L (6 h): 1 g | KIDNEY_R (6 h): 0.9 g | KIDNEY_TOTAL (6 h): 1.9 g | LIVER (6 h): 9.4 g | A/G (6 h): 1.5 | ALP (6 h): 808.4 IU/L | ALT (6 h): 34.2 IU/L | AST (6 h): 68 IU/L | BUN (6 h): 9.4 mg/dL | CRE (6 h): 0.4 mg/dL | Ca (6 h): 10.7 mg/dL | Cl (6 h): 103.2 meq/L | DBIL (6 h): 0.068 mg/dL | GLC (6 h): 189.4 mg/dL | IP (6 h): 9 mg/dL | LDH (6 h): 202 IU/L | Na (6 h): 140.4 meq/L | PL (6 h): 141.2 mg/dL | RALB (6 h): 3.2 g/dL | TBIL (6 h): 0.1 mg/dL | TC (6 h): 82 mg/dL | TG (6 h): 60 mg/dL | TP (6 h): 5.4 g/dL | gamma-GTP (6 h): 1.4 IU/L | TERMINAL_BW (9 h): 209.4 g | APTT (9 h): 18.3 s | Bas (9 h): 0% | Eos (9 h): 0.8% | Fbg (9 h): 232.2 mg/dL | Hb (9 h): 13.4 g/dL | Ht (9 h): 37.1% | Lym (9 h): 74.2% | MCH (9 h): 22 pg | MCHC (9 h): 36% | MCV (9 h): 61.2 fL | Mono (9 h): 2.2% | Neu (9 h): 19.2% | PT (9 h): 12.1 s | Plat (9 h): 116.7 x10_4/uL | RBC (9 h): 606.6 x10_4/ul | Ret (9 h): 7% | WBC (9 h): 87.3 x10_2/uL | KIDNEY_L (9 h): 0.9 g | KIDNEY_R (9 h): 1 g | KIDNEY_TOTAL (9 h): 1.9 g | LIVER (9 h): 9 g | A/G (9 h): 1.6 | ALP (9 h): 851.2 IU/L | ALT (9 h): 31.2 IU/L | AST (9 h): 61.2 IU/L | BUN (9 h): 10.2 mg/dL | CRE (9 h): 0.4 mg/dL | Ca (9 h): 10.5 mg/dL | Cl (9 h): 103.6 meq/L | DBIL (9 h): 0.064 mg/dL | GLC (9 h): 200.8 mg/dL | IP (9 h): 8.8 mg/dL | LDH (9 h): 135.4 IU/L | Na (9 h): 141 meq/L | PL (9 h): 140.8 mg/dL | RALB (9 h): 3.4 g/dL | TBIL (9 h): 0.1 mg/dL | TC (9 h): 80.6 mg/dL | TG (9 h): 62.4 mg/dL | TP (9 h): 5.5 g/dL | gamma-GTP (9 h): 0.8 IU/L | TERMINAL_BW (24 h): 225.3 g | APTT (24 h): 19.8 s | Bas (24 h): 0% | Eos (24 h): 1% | Fbg (24 h): 229.6 mg/dL | Hb (24 h): 13.3 g/dL | Ht (24 h): 37.2% | Lym (24 h): 78.2% | MCH (24 h): 22.3 pg | MCHC (24 h): 35.8% | MCV (24 h): 62.2 fL | Mono (24 h): 2.2% | Neu (24 h): 16.2% | PT (24 h): 12 s | Plat (24 h): 121.8 x10_4/uL | RBC (24 h): 599.4 x10_4/ul | Ret (24 h): 6.1% | WBC (24 h): 86.8 x10_2/uL | KIDNEY_L (24 h): 1 g | KIDNEY_R (24 h): 1 g | KIDNEY_TOTAL (24 h): 2 g | LIVER (24 h): 10.8 g | A/G (24 h): 1.4 | ALP (24 h): 990 IU/L | ALT (24 h): 40.6 IU/L | AST (24 h): 68.2 IU/L | BUN (24 h): 14.2 mg/dL | CRE (24 h): 0.4 mg/dL | Ca (24 h): 10.6 mg/dL | Cl (24 h): 104.2 meq/L | DBIL (24 h): 0.076 mg/dL | GLC (24 h): 199.4 mg/dL | IP (24 h): 7.7 mg/dL | LDH (24 h): 198.4 IU/L | Na (24 h): 140.6 meq/L | PL (24 h): 145.8 mg/dL | RALB (24 h): 3.3 g/dL | TBIL (24 h): 0.1 mg/dL | TC (24 h): 74.2 mg/dL | TG (24 h): 82.6 mg/dL | TP (24 h): 5.6 g/dL | gamma-GTP (24 h): 0.6 IU/L
